Assays:
[1] = tested on: washed human platelets; assay: Aggregation of washed human platelets (stimulus 1 μM U46619); assay type: cell-based; conditions: Platelet; aspirin-treated washed human platelets; compound added 2 min before 1 μM U46619; assessed 4 min after stimulus; 37° C.
Experimental: METHOD FOR MEASUREMENT OF AGGREGATION OF WASHED HUMAN PLATELETS
Platelets were prepared from freshly drawn human blood. Blood was collected into acid citrate anticoagulant, centrifuged (5 min at 500 g), and the upper layer of platelet-rich plasma was removed. This platelet-rich plasma was incubated with aspirin (100 μM) for 10 min at 37° C. and then centrifuged (15 min at 200 g). The platelet pellet was resuspended (at approx. 1.5×10^8 cells/ml) in medium containing NaCl (145 mM), KCl (5 mM), MgCl2 (1 mM), CaCl2 (0.2 mM), Hepes (10 mM, ph 7.4 at 37° C.), glucose (10 mM), apyrase (10 μg/ml). Aggregation was monitored (as a change in optical density) at 37° C. in a 4 channel aggregometer (PAP-4 from Biodata Corp.). Fibrinogen (1 mg/ml) and CaCl2 (1 mM) were added to aliquots of platelets that were continuously stirred. The test compound (or 0.1% DMSO vehicle) was added 2 min before the aggregatory stimulus (1 μM U46619). The extent of aggregation was assessed 4 min after addition of the stimulus, and was calculated as % of the control response in the absence of test compound. Dose-response curves were constructed for measurement of IC50 values for each compound.

[2] = target: T1, [^3 H]iloprost binding to human platelet membranes (Homo sapiens, UniProt P43119); assay: Inhibition of [^3 H]iloprost binding to human platelet membranes; conditions: [^3 H]iloprost 10 nM; pH 7.4; 30 min at 37° C.; calculated from IC50 for displacement
T1 construct: Membranes were prepared from outdated platelet-rich plasma concentrates obtained from the Blood Transfusion Service; from tissue; host or cells: human platelets (outdated platelet-rich plasma concentrates from the Blood Transfusion Service)
Experimental: METHOD FOR MEASUREMENT OF KI FOR INHIBITION OF [^3 H]ILOPROST BINDING TO HUMAN PLATELET MEMBRANES
Membranes were prepared from outdated platelet-rich plasma concentrates obtained from the Blood Transfusion Service. The platelets were homogenised in buffer containing Tris-Cl (5 mM, pH 7.4 at 20° C.) and EDTA (0.25 mM), and then centrifuged (10 min at 26,000 g). The membrane pellet was washed twice by homogenisation in buffer containing Tris-Cl (50 mM, pH 7.4 at 20° C.) and EDTA (0.25 mM), followed by centrifugation. For measurement of [^3 H]iloprost binding, membranes (0.4-0.8 mg) were incubated in the presence of Tris-Cl (50 mM, pH 7.4 at 20° C.), MgCl2 (4 mM), EDTA (40 μM), […] (10 nM), DMSO (1.85%), and varying concentrations of the test compounds. For determination of non-specific binding, 20 μM iloprost was included. The tubes (triplicates for each condition) were set up on ice, and then incubated for 30 min at 37° C. The incubations were terminated by rapid filtration on Whatman GF/B filters using a Brandel Harvester. The filters were washed and then counted for radioactivity. The Ki of the test compounds for inhibition of binding of [^3 H] iloprost to human platelet membranes was calculated from the IC50 for displacement of [^3 H]iloprost binding.

T1 sequence (P43119 whole entry, the tested form may be a part): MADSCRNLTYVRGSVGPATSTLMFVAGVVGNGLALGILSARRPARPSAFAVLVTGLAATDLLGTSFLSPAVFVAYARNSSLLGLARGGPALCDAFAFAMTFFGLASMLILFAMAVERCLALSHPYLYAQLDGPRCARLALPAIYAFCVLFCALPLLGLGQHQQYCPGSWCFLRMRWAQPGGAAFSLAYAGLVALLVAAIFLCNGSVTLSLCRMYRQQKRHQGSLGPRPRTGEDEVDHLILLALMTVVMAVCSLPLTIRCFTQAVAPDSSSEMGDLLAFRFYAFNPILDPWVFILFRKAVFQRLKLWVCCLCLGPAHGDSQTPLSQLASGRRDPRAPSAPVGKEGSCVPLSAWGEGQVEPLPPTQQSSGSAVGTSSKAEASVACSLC

Molecule `O=c1n(CCCCCCCS(=O)(=O)O)c(-c2ccccc2)c(-c2ccccc2)n1-c1ccccc1` [Example 1, Sodium 7(3,4,5-triphenyl-2-oxo-2,3-dihydroimidazol-1-yl)-heptanesulphonate] has an IC50 [1] of 0.25 µM and a Ki [2] of 8 µM.
For `CCOP(=O)(CCCCCCCn1c(-c2ccccc2)c(-c2ccccc2)n(-c2ccccc2)c1=O)OCC` [Example 2, Diethyl 7-(3,4,5-triphenyl-2-oxo-2,3-dihydroimidazol-1-yl)heptanephosphonate], the IC50 [1] was 5.5 µM and the Ki [2] was 30 µM.
With `O=c1n(CCCCCCCP(=O)(O)O)c(-c2ccccc2)c(-c2ccccc2)n1-c1ccccc1` [Example 3, 7-(3,4,5-Triphenyl-2-oxo-2,3-dihydroimidazol-1-yl)-heptanephosphonic acid] the IC50 [1] was 43 µM and the Ki [2] was 1.29 µM.
`CCOP(C)(=O)CCCCCCCn1c(-c2ccccc2)c(-c2ccccc2)n(-c2ccccc2)c1=O` (centres unmarked) [Example 4, Ethyl 7-(3,4,5-triphenyl-2-oxo-2,3-dihydroimidazol-1-yl)methylphosphinate] was tested, and the IC50 [1] was 21 µM and the Ki [2] was 19 µM.

Source: patent US5338752A, “Substituted 2-imidazolone derivatives, their preparation and pharmaceutical compositions” (SK&F Laboratories Ltd., priority 1990, dated 1994)
